Patent publication US6265423A, “Aromatic polycyclic retinoid-type derivatives, method for preparing same, and use thereof for making pharmaceutical and cosmetic compositions” (priority 1996, dated 2001)
“Also recorded” adds a separate entry of the source.

Tests used:
[1] = cited from earlier work
MCF-7 cells = assay: Effect on oestrogen-induced proliferation of MCF-7 cells; assay type: cell-based, human; conditions: estradiol 10^-9 M
Method: MCF-7 cells and HeLa are cultivated in DMFM with phenol red to which 5% foetal calf serum is added. […] The experimental tests are carried out in DMEM without phenol red to which foetal calf serum treated with dextran carbon is added at 3%. […] The experiments using the different retinoids are carried out sheltered from the light so as to avoid any isomerisation.
So as to test the anti-proliferation effect of the retinoids, growth experiments under oestrogenic conditions were carried out on cells MCF-7 and T-47D. These are the human oestrogen-dependent mammary cancer cells which express the receptor to RE oestrogens. The effect of the molecules is evaluated after 7 days of culture in oestrogenic conditions (estradiol 10^-9 M) by dosing the cellular DNA. The cells are distributed in 24 well plates at a density of 2×10^4 cells per well. The tests with the different retinoids are carried out in triplicate and the culture medium is changed after 4 days of growth.

T-47D lineage = assay: SAMBA image analysis test; assay type: cell-based, human
From the text: The molecules which have shown themselves to be the most interesting in the MTT test have been evaluated in an image analysis test called SAMBA. In effect, the recent advances in the field of image analysis have allowed new approaches to the evaluation of different cellular kinetic parameters and the measurement of the distribution of chromatin. The data thereby provided are processed using different statistical tests.
The use of the Systeme d'Analyses Microscopiques a Balayage Automatique 2005 (SAMBA 2005, Alcatel TITN, France), (System of Microscopic Analyses with Automatic Sweep 2005) permits measurement of the influence of the compounds researched at three levels:
The cells in exponential growth are cultured on small glass slip plates (Kiss R. et al. Eur. J. Cancer, 27, 1268-1274, 1991) at the rate of from […] cells/ml (depending on the cellular line being considered) in 3 ml of minimum essential medium (MEM, Gibco). […]
The interest in the Feulgen coloration resides in the possibility of colouring the DNA in a specific and stoichiometric fashion (Giroud F., Cell, 44, 177-188, 1982; Kiss R. et al., J. Histochem. Cytochem., 41, 6, 935-945, 1993). For each experimental condition, 900 nuclei are analysed by the image analyser. […]
These 15 parameters are calculated by specific software, from: […]

SMILES | metabolism (in words) ([1]; chronic treatment) | adverse effects in chronic treatment (in words) [1] | effect on oestrogen-induced growth, MCF-7 (in words) (MCF-7 cells) | morphonuclear / anti-tumoral effect (in words) (T-47D lineage)
CC1=C(/C=C/C(C)=C/C=C/C(C)=C/C(=O)O)C(C)(C)CCC1 [CB16178, all-trans retinoic acid, reference compound] | an inducer of its own metabolism | powerful effect of hypervitaminose, of mucocutaneous toxicity and of teratogenecity | – | –
C/C(=C\c1ccc(C(=O)O)cc1)c1ccc2c(c1)C(C)(C)CCC2(C)C [TTNPB, reference compound] | – | – | stronger inhibiting effect than the natural ligands (all-trans RA and 9-cis RA) and than LGD1069 | strongly suggests a direct correlation between the cytotoxic effect of the molecule and its anti-tumoral activity; also recorded: exercises its anti-tumoral activity through a direct cytotoxic (cytocidal) effect
C/C(=C/c1ccc2c(c1)C(C)(C)CCC2(C)C)c1ccc(-c2nnn[nH]2)cc1 [CB92834] | – | – | – | not linked to a cytotoxic effect; also recorded: mediated by an activation of the cellular death and/or an inhibition of the proliferation due to the induction of the cellular differentiation
